Columns and labels:
tumor cell line (A-431) = conditions: A-431, highest expression level of HER1; Non-Patent Document 1; cited from earlier work
[1] = tested on: RTKs in cell membrane fraction MDA-MB-468; experiment: RTK activity of cell membrane fraction with or without inhibitor (ELISA, Biotin-poly(Glu, Tyr) substrate); assay type: biochemical; conditions: treatment solution containing 100 μM inhibitor, 100 μM ATP, FIG. 1
Method: (§1) Cultured cells (13 types: A-431, KF, MDA-MB-468, RMUG-L, BT-474, ES2, MDA-MB-453, SK-Br-3, SNG-S, K-562, MDA-MB-231, MCF7 and T47D) were respectively mixed with 1 ml of a homogenizing reagent (containing 20 mM HEPES pH7.4, 0.2% protease inhibitors (PI), 10% glycerol, 200 μM Na3VO4 and 50 mM NaF), pressurized with a pestle to break cell membrane and cell homogenate was obtained. The obtained cell homogenate was centrifuged (20,000×g, 20 min.), the supernatant was discarded and the pellet was collected. The collected pellet was added with a solubilizing solution (containing 20 mM HEPES pH7.4, 1% NP40, 0.2% PI, 10% glycerol, 200 μM Na3VO4 and 50 mM NaF), mixed, pressurized with a pestle to solubilize cell membrane and centrifuged (20,000×g, 20 min.). The supernatant was then collected as the cell membrane fraction, adjusted its total protein amount to 40 μg/ml and used for the following experiments.
(§2) The ELISA plate used was the avidin coated plate (NeutrAvidin HBC White 96-Well Plates With SuperBlock Blocking Buffer; PIERCE). Each well of the plate was washed three times with TBS-T (containing 25 mM Tris, 150 mM NaCl and 0.05% Tween-20). A substrate solution 1 (50 μl; TBS containing 1 μg/ml Biotin-poly(Glu, Tyr) substrate) was added to each well and the plate was incubated with gentle shaking at 25° C. for 1.5 hours. After the incubation, each well was washed three times with TBS-T. Thus, Biotin-poly(Glu, Tyr) substrate was bound to the surface of each well of the ELISA plate. This ELISA plate was used for the following enzyme reaction.
(§3) The cell membrane fractions (25 μl each) of the above tumor cells were placed in seven tubes, respectively. To six tubes were added 25 μl of a treatment solution (20 mM HEPES pH7.4, 20 mM MnCl2, 2 mM DTT, 1% NP40, 10% glycerol, 200 μM Na3VO4, 50 mM NaF, 100 μM ATP, 400 μM PPI (BIOMOL)) containing 100 μM PD153035, 25 μl of treatment solution containing 100 μM AG1478, 25 μl of the treatment solution containing 100 μM 4557W, 25 μl of the treatment solution containing 100 μM Src inhibitor, 25 μl of the treatment solution containing 100 μM PDGFR inhibitor and 25 μl of the treatment solution containing 100 μM VEGFR inhibitor, respectively, to contact the cell membrane fractions with RTK activity inhibitors. To the remained tube was added with 25 μl of the treatment solution without inhibitors. The thus obtained solutions are called as reaction solutions. In order to suppress the enzyme activity of RTKs, the above procedures were carried out at below 4° C.
(§4) Each reaction solution (50 μl was distributed to each well of the ELISA plate prepared as above, and the plate was incubated at 25° C. for about 30 minutes to bring the cell membrane fractions having contacted or not with RTK activity inhibitors into contact with the substrate. After the incubation, each well was added with 100 μl of a reaction termination solution (TBS-T containing 5 mM EDTA) and washed three times with TBS-T. Each well was then washed with 300 μl of StartingBlock T20 (TBS) Blocking Buffer (PIERCE). After washing, each well was added with 100 μl of HRP-labeled primary antibody (p-Tyr (PY20), sc-508 HRP (SANTA Cruz Biotechnology), an antibody recognizing a phosphorylated tyrosine residue) diluted to 1000-fold with StartingBlock T20 (TBS) Blocking Buffer, and the plate was incubated with gentle shaking at 25° C. for about 1.5 hours. After the incubation, wells were washed for five times with TBS-T. After washing, each well was added with 150 μl of chemiluminescent substrate (SuperSignal ELISA PICO (PIERCE)), and after 5 min., luminescence was measured with a microplate reader GENios (TECAN) to measure RTK activities. […]

MDA-MB-468 tumor = experiment: Tumor mass of MDA-MB-468 tumor in mice; assay type: in vivo, mice (BALB/c nu/nu); conditions: 30 mg/kg/day injected for 7 days, Days 3, 5, 8 relative to Day 1, FIG. 4
Method: MDA-MB-468 cells were cultured in a medium (DMEM-F12 (Sigma) containing 10% FBS (Hyclone)) until cells become 80% confluent in a 225-cm^2 flask. The obtained cultured cells were suspended in 100 μl of DMEM-F12 at about 1×10^7 cells to obtain a MDA-MB-468 cell suspension.
Fat pad of 10-week-old female mice (BALB/c nu/nu) was injected with 100 μl of the MDA-MB-468 cell suspension. After 14 days, the growth of tumor in mice was confirmed. Thus, tumor was allowed to be formed in three mice.
At 14 days after the injection of the MDA-MB-468 cell suspension, an inhibitor solution was injected to the mouse having tumor. Specifically, AG1478 was dissolved in 100 μl of dimethylsulfoxide (DMSO, Sigma) to obtain a inhibitor solution 1. The mouse was injected with the inhibitor solution 1 so that it received the inhibitor at a dose of 30 mg/kg/day. The inhibitor solution 1 was injected for consecutive 7 days. 4557W was dissolved in DMSO to obtain an inhibitor solution 2. […]
On Day 1, the mice were injected with the inhibitor solutions. On Days 1, 3, 5, and 8, the tumor mass (mm^3) in mice was measured. The tumor mass was calculated from the longitudinal and transverse diameters of the tumor measured, assuming that the shape of the tumor is an oval sphere.
The tumor mass of the mouse injected with DMSO was measured in a similar manner. […]

[2] = tested on: RTKs in cell membrane fraction BT-474; experiment: RTK activity of cell membrane fraction with or without inhibitor (ELISA, Biotin-poly(Glu, Tyr) substrate); assay type: biochemical; conditions: treatment solution containing 100 μM inhibitor, 100 μM ATP, FIG. 1
Method: as §1, §2, §3, §4

[3] = tested on: RTKs in cell membrane fraction MCF7; experiment: as above; assay type: biochemical; conditions: treatment solution containing 100 μM inhibitor, 100 μM ATP, FIG. 2
Method: as §1, §2, §3, §4

[4] = tested on: RTKs in cell membrane fraction MDA-MB-231; experiment: as above; assay type: biochemical; conditions: treatment solution containing 100 μM inhibitor, 100 μM ATP, FIG. 2
Method: as §1, §2, §3, §4

BT-474 cells = experiment: VEGF secretion ability (Human VEGF Quantikine ELISA); assay type: cell-based; conditions: 1 μM inhibitor, 4 hours, FIG. 6
Method: (§5) The VEGF secretion ability was measured as follows. Cultured cells of MDA-MB-468, BT-474, MCF7 and MDA-MB-231 were seeded in a 6-well plate (Corning) at 1×10^6 cells/well and cultured at 37° C. in a medium (10% FBS). After 24 hours, the medium is changed to a serum free medium and the culture was continued for further 18 hours. The serum free medium used was DMEM/F12 (SIGMA) or RPMI1640 (SIGMA) supplemented with the antibiotics Antibiotic-Antimycotic (100×) (GIBCO). Thereafter, the medium was changed to the medium (10% FBS) containing 1 μM inhibitor in DMSO (PD153035, AG1478, PDGFR inhibitor or VEGFR inhibitor) and the culture was continued for additional 4 hours. The cell supernatant was then collected. The amount of VEGFs in the supernatant was measured with Human VEGF Quantikine ELISA Kit (R&D system) according to the attached protocol.
(§6) The control experiment was carried out with DMSO only instead of the inhibitor.
(§7) In FIG. 6, the y-axis corresponds to VEGF concentration (pg/ml), which reflects the amount of VEGFs secreted from the cells. In FIG. 6, “DMSO”, “PD”, “AG”, “PDGFR” and “VEGFR” represent the results of control, and the cells treated with PD153035, AG1478, PDGFR inhibitor and VEGFR inhibitor, respectively.

MDA-MB-468 cells = experiment: as above; assay type: cell-based; conditions: 1 μM inhibitor, 4 hours, FIG. 6
Method: as §5, §6, §7

Structure (SMILES) | proliferation of the tumor cell line (tumor cell line (A-431)) | RTK activity in the presence of the inhibitor (relative to control RTK activity) [1] | increase in the tumor mass (MDA-MB-468 tumor) | RTK activity in the presence of the inhibitor (relative to control RTK activity) [2] | RTK activity in the presence of the inhibitor (relative to control RTK activity) [3] | RTK activity in the presence of the inhibitor (relative to control RTK activity) [4] | VEGF secretion amount compared to the control value (BT-474 cells) | VEGF secretion amount compared to the control value (MDA-MB-468 cells)
COc1cc2ncnc(Nc3ccc(F)c(Cl)c3)c2cc1OCCCN1CCOCC1 [Iressa, gefitinib] | suppressed at the highest degree | – | – | – | – | – | – | –
COc1cc2ncnc(Nc3ccc(OCc4ccccc4)cc3)c2cc1OC [4557W] | – | decreased | suppressed | – | – | – | – | –
COc1cc2ncnc(Nc3cccc(Cl)c3)c2cc1OC [AG1478] | – | decreased | suppressed | decreased | not decreased | not decreased | decreased | decreased
COc1cc2ncnc(Nc3cccc(Br)c3)c2cc1OC [PD153035] | – | decreased | – | decreased | not decreased | not decreased | decreased | decreased

Reference: patent US20110027809A1, “METHOD FOR EVALUATION OF DEGREE OF MALIGNANCY OF TUMOR CELL” (priority 2008, published 2011)
